Columns and labels:
Format in all cases: biochemical
Fms = Fms (Homo sapiens, UniProt P07333); assay: Kinase activity assay, Fms; conditions: under the test conditions employed; read-out: activity toward kinase Fms, IC50
Text: (§1) Assays for the activity of kinases, including, but not limited to, B-Raf, B-Raf V600E, B-Raf […] and c-Raf-1 are known in the art, for example as described in U.S. patent application Ser. No. 11/473,347 (see Iso, PCT publication WO2007002433), the disclosure of which is hereby incorporated by reference in its entirety.

Kdr = Kdr (Homo sapiens, UniProt P35968); assay: Kinase activity assay, Kdr; conditions: under the test conditions employed; read-out: activity toward kinase Kdr, IC50
Chain of Kdr (P35968 20-1356): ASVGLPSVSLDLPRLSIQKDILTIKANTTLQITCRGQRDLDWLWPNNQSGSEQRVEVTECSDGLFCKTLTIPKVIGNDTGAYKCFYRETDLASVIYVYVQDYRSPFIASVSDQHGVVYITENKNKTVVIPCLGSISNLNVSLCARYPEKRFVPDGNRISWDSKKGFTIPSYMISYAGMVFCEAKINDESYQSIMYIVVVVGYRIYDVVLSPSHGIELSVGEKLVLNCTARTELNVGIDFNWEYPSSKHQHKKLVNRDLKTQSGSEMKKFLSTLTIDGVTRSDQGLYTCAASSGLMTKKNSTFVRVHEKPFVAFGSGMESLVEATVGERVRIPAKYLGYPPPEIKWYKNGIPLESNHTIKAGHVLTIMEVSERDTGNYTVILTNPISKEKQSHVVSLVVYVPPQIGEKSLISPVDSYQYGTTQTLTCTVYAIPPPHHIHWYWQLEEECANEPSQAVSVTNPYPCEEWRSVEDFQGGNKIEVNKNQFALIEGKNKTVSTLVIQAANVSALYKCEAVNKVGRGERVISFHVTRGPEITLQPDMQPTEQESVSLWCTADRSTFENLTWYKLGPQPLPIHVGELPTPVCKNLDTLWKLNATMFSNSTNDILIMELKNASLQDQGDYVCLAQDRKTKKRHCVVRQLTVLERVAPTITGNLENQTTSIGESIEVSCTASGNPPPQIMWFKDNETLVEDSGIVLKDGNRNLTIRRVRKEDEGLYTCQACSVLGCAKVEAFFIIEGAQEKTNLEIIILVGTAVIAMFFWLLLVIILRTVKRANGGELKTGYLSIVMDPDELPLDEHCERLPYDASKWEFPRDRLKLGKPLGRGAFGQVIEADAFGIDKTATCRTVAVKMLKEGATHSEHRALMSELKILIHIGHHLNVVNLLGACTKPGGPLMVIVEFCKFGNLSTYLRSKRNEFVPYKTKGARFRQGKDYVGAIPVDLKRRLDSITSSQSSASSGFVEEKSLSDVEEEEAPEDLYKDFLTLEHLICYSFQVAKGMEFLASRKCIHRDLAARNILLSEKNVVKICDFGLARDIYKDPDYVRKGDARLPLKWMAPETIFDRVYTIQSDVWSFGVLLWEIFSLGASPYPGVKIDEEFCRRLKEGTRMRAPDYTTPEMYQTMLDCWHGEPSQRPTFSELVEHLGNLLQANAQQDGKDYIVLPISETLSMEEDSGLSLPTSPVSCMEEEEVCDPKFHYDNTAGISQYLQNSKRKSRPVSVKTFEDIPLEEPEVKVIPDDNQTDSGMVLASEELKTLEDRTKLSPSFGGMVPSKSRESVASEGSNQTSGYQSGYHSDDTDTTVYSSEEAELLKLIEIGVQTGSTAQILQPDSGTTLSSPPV
Text: as §1

Kit = Kit (Homo sapiens, UniProt P10721); assay: Kinase activity assay, Kit; conditions: under the test conditions employed; read-out: activity toward kinase Kit, IC50
Chain of Kit (P10721 26-976): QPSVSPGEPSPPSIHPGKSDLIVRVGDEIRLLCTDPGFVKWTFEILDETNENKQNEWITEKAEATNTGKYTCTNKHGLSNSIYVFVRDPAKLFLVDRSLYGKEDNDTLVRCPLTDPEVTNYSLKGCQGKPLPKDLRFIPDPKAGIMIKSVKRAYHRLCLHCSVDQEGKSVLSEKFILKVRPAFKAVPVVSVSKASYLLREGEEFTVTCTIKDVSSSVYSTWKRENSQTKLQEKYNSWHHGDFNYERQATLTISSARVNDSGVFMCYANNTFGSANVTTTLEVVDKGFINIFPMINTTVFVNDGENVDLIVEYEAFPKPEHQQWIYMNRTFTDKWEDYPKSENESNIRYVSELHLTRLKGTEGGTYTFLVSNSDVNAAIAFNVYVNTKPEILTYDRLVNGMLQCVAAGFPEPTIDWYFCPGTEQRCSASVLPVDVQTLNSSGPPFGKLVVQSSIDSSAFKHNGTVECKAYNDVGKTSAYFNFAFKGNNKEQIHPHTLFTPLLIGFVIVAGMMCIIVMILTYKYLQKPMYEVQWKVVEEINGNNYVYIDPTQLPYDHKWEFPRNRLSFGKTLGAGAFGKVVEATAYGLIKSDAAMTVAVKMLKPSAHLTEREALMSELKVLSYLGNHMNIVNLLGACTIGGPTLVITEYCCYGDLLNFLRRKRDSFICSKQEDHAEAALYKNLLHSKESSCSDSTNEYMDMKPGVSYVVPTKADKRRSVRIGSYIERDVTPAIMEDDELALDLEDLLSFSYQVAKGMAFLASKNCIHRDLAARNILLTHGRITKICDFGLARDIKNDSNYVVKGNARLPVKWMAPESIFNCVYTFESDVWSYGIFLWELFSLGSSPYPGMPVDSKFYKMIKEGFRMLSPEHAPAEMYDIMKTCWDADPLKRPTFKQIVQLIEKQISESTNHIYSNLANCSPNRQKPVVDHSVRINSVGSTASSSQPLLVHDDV
Text: as §1

Src = Src (Homo sapiens, UniProt P12931); assay: Kinase activity assay, Src; conditions: under the test conditions employed; read-out: activity toward kinase Src, IC50
Chain of Src (P12931 whole entry): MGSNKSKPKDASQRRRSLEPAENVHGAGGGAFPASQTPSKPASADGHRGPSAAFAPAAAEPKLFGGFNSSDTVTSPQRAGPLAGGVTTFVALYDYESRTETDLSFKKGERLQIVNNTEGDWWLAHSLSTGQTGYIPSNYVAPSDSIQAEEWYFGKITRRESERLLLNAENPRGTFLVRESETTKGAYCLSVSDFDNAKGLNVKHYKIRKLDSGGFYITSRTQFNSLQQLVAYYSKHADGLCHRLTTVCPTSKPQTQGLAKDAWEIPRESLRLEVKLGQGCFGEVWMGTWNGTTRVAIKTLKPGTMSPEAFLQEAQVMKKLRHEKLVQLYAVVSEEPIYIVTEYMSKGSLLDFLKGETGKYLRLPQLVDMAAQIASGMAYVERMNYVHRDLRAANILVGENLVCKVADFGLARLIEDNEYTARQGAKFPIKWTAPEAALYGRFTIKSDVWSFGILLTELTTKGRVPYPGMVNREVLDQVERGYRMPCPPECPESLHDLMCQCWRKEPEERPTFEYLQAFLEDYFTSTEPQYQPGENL
Text: as §1

B-Raf = B-Raf (Homo sapiens, UniProt P15056); assay: Kinase activity assay, B-Raf; conditions: under the test conditions employed; read-out: activity toward kinase B-Raf, IC50
Chain of B-Raf (P15056 whole entry): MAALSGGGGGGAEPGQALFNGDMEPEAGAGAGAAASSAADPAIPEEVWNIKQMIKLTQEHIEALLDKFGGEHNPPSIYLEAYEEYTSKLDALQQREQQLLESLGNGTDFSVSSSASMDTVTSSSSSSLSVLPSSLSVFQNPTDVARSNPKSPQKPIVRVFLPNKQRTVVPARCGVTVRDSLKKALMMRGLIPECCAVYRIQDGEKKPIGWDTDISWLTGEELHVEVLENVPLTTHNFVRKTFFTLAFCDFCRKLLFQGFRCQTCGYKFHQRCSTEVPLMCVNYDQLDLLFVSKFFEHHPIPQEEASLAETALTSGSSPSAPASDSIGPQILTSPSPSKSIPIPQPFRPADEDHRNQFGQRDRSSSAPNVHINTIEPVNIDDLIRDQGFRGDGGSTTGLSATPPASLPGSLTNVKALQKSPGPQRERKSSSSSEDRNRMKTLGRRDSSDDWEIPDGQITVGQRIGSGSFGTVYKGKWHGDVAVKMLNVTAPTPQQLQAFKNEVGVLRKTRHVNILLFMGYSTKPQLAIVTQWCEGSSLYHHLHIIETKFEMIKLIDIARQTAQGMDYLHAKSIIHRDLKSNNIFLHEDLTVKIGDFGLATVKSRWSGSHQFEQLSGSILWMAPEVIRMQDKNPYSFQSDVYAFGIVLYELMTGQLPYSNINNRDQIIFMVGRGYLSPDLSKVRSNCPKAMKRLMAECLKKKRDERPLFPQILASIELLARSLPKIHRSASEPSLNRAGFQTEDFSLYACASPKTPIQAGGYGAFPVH
Text: as §1

B-Raf V600E = B-Raf V600E (Homo sapiens, UniProt P15056, V600E); assay: Kinase activity assay, B-Raf V600E; conditions: under the test conditions employed; read-out: activity toward kinase B-Raf V600E, IC50
Chain of B-Raf V600E (P15056 whole entry V600E): as the sequence (P15056 whole entry) above, with V600E counted along it
Text: as §1

c-Raf-1 = c-Raf-1 (Homo sapiens, UniProt P04049); assay: Kinase activity assay, c-Raf-1; conditions: under the test conditions employed; read-out: activity toward kinase c-Raf-1, IC50
Text: as §1

Chain of Fms (P07333 20-972): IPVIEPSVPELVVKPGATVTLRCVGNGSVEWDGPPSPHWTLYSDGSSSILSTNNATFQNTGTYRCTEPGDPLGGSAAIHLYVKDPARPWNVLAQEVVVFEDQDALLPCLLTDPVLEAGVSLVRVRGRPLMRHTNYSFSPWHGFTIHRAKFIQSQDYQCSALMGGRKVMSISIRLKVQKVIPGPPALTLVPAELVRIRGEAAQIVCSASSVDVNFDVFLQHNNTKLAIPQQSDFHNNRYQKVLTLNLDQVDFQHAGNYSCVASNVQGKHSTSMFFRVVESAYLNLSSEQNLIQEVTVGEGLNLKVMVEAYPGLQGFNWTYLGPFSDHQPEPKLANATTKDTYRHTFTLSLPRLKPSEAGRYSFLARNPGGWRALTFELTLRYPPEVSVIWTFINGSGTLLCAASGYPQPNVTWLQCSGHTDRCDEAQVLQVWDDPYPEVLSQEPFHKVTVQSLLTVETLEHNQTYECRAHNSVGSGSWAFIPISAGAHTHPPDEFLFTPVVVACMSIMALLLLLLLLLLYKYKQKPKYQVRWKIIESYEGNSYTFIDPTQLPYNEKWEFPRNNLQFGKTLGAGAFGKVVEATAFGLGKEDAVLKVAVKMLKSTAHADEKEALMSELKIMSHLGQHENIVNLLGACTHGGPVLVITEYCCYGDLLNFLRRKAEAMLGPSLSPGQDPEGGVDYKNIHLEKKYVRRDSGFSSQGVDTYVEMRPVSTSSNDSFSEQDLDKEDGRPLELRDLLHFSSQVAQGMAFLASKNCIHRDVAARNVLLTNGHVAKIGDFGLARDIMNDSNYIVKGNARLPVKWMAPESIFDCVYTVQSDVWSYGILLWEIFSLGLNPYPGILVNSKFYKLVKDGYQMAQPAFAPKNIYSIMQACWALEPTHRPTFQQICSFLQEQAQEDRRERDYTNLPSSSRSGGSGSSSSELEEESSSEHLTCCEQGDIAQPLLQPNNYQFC

| SMILES | IC50 (Fms) [µM] | IC50 (Kdr) [µM] | IC50 (Kit) [µM] | IC50 (Src) [µM] | IC50 (B-Raf) [µM] | IC50 (B-Raf V600E) [µM] | IC50 (c-Raf-1) [µM] |
| --- | --- | --- | --- | --- | --- | --- | --- |
| Cn1cc(S(=O)(=O)Nc2ccc(F)c(C(=O)c3c[nH]c4ncc(Cl)cc34)c2F)c(C(F)(F)F)n1 [Compound P-0010, 1-Methyl-3-trifluoromethyl-1H-pyrazole-4-sulfonic acid [3-(5-chloro-1H-pyrrolo[2,3-b]pyridine-3-carbonyl)-2,4-difluoro-phenyl]-amide] | ≤ 10 | ≤ 10 | ≤ 10 | ≤ 10 | – | – | – |
| O=C(c1c(F)ccc(NS(=O)(=O)c2ccc(-n3cccn3)cc2)c1F)c1c[nH]c2ncc(Cl)cc12 [Compound P-0008, N-[3-(5-Chloro-1H-pyrrolo[2,3-b]pyridine-3-carbonyl)-2,4-difluoro-phenyl]-4-pyrazol-1-yl-benzenesulfonamide] | – | ≤ 10 | ≤ 10 | ≤ 10 | – | – | ≤ 10 |
| Cn1ccc(S(=O)(=O)Nc2ccc(F)c(C(=O)c3c[nH]c4ncc(Cl)cc34)c2F)n1 [Compound P-0029, 1-Methyl-1H-pyrazole-3-sulfonic acid [3-(5-chloro-1H-pyrrolo[2,3-b]pyridine-3-carbonyl)-2,4-difluoro-phenyl]-amide] | – | ≤ 10 | ≤ 10 | ≤ 10 | – | ≤ 10 | – |
| CCCCOc1ccc(S(=O)(=O)Nc2ccc(F)c(C(=O)c3c[nH]c4ncc(Cl)cc34)c2F)cc1 [Compound P-0007, 4-Butoxy-N-[3-(5-chloro-1H-pyrrolo[2,3-b]pyridine-3-carbonyl)-2,4-difluoro-phenyl]-benzenesulfonamide] | – | – | ≤ 10 | – | ≤ 10 | ≤ 10 | ≤ 10 |
| O=C(O)CCc1cnc2[nH]cc(C(=O)c3c(F)ccc(NS(=O)(=O)c4ccc(C(F)(F)F)cc4)c3F)c2c1 [Compound P-0034, 3-{3-[2,6-difluoro-3-(4-trifluoromethyl-benzenesulfonylamino)-benzoyl]-1H-pyrrolo[2,3-b]pyridin-5-yl}-propionic acid] | – | ≤ 10 | – | – | ≤ 10 | ≤ 10 | – |
| CCNC(=O)CCc1cnc2[nH]cc(C(=O)c3c(F)ccc(NS(=O)(=O)c4ccc(C(F)(F)F)cc4)c3F)c2c1 [Compound P-0035, 3-{3-[2,6-Difluoro-3-(4-trifluoromethyl-benzenesulfonylamino)-benzoyl]-1H-pyrrolo[2,3-b]pyridin-5-yl}-N-ethyl-propionamide] | ≤ 10 | – | ≤ 10 | – | ≤ 10 | ≤ 10 | – |
| O=C(c1c(F)ccc(NS(=O)(=O)c2ccc3ncsc3c2)c1F)c1c[nH]c2ncc(Cl)cc12 [Compound P-0009, Benzothiazole-6-sulfonic acid [3-(5-chloro-1H-pyrrolo[2,3-b]pyridine-3-carbonyl)-2,4-difluoro-phenyl]-amide] | ≤ 10 | – | ≤ 10 | ≤ 10 | ≤ 10 | ≤ 10 | ≤ 10 |
| COc1cnc2[nH]cc(C(=O)c3c(F)ccc(NS(=O)(=O)c4ccccn4)c3F)c2c1 [Compound P-0036, Pyridine-2-sulfonic acid [2,4-difluoro-3-(5-methoxy-1H-pyrrolo[2,3-b]pyridine-3-carbonyl)-phenyl]-amide] | – | – | – | ≤ 10 | ≤ 10 | – | – |
| Cc1cc(S(=O)(=O)Nc2ccc(F)c(C(=O)c3c[nH]c4ncc(Cl)cc34)c2F)c(C(F)(F)F)o1 [Compound P-0002, 5-Methyl-2-trifluoromethyl-furan-3-sulfonic acid [3-(5-chloro-1H-pyrrolo[2,3-b]pyridine-3-carbonyl)-2,4-difluoro-phenyl]-amide] | ≤ 10 | ≤ 10 | ≤ 10 | ≤ 10 | ≤ 10 | ≤ 10 | ≤ 10 |
| O=C(O)c1cccc(S(=O)(=O)Nc2ccc(F)c(C(=O)c3c[nH]c4ncc(Cl)cc34)c2F)c1 [Compound P-0004, 3-[3-(5-Chloro-1H-pyrrolo[2,3-b]pyridine-3-carbonyl)-2,4-difluoro-phenylsulfamoyl]-benzoic acid] | – | ≤ 10 | – | ≤ 10 | – | – | – |

Next, values leading:

| IC50 (Fms) [µM] | IC50 (Kdr) [µM] | IC50 (Kit) [µM] | IC50 (Src) [µM] | IC50 (B-Raf) [µM] | IC50 (B-Raf V600E) [µM] | IC50 (c-Raf-1) [µM] | SMILES |
| --- | --- | --- | --- | --- | --- | --- | --- |
| – | – | – | – | ≤ 10 | ≤ 10 | – | COC(=O)CCc1cnc2[nH]cc(C(=O)c3c(F)ccc(NS(=O)(=O)c4ccc(C(F)(F)F)cc4)c3F)c2c1 [Compound P-0033, 3-{3-[2,6-difluoro-3-(4-trifluoromethyl-benzenesulfonylamino)-benzoyl]-1H-pyrrolo[2,3-b]pyridin-5-yl}-propionic acid methyl ester] |
| ≤ 10 | ≤ 10 | ≤ 10 | – | ≤ 10 | ≤ 10 | ≤ 10 | CC(C)(C)c1ccc(S(=O)(=O)Nc2ccc(F)c(C(=O)c3c[nH]c4ncc(Cl)cc34)c2F)cc1 [Compound P-0014, 4-tert-Butyl-N-[3-(5-chloro-1H-pyrrolo[2,3-b]pyridine-3-carbonyl)-2,4-difluoro-phenyl]-benzenesulfonamide] |
| – | ≤ 10 | ≤ 10 | ≤ 10 | ≤ 10 | – | ≤ 10 | COCCOc1cnc2[nH]cc(C(=O)c3c(F)ccc(NS(=O)(=O)c4ccc(C(C)C)cc4)c3F)c2c1 [Compound P-0018, N-{2,4-Difluoro-3-[5-(2-methoxy-ethoxy)-1H-pyrrolo[2,3-b]pyridine-3-carbonyl]-phenyl}-4-isopropyl-benzenesulfonamide] |
| ≤ 10 | ≤ 10 | ≤ 10 | ≤ 10 | ≤ 10 | – | ≤ 10 | CC(C)Oc1ccc(S(=O)(=O)Nc2ccc(F)c(C(=O)c3c[nH]c4ncc(Cl)cc34)c2F)cc1 [Compound P-0011, N-[3-(5-Chloro-1H-pyrrolo[2,3-b]pyridine-3-carbonyl)-2,4-difluoro-phenyl]-4-isopropoxy-benzenesulfonamide] |
| – | ≤ 10 | ≤ 10 | – | ≤ 10 | ≤ 10 | – | COC(=O)/C=C/c1cnc2[nH]cc(C(=O)c3c(F)ccc(NS(=O)(=O)c4ccc(C(F)(F)F)cc4)c3F)c2c1 [Compound P-0032, (E)-3-{3-[2,6-Difluoro-3-(4-trifluoromethyl-benzenesulfonylamino)-benzoyl]-1H-pyrrolo[2,3-b]pyridin-5-yl}-acrylic acid methyl ester] |
| ≤ 10 | – | ≤ 10 | ≤ 10 | ≤ 10 | ≤ 10 | ≤ 10 | CCCc1ccc(S(=O)(=O)Nc2ccc(F)c(C(=O)c3c[nH]c4ncc(Cl)cc34)c2F)cc1 [Compound P-0015, N-[3-(5-Chloro-1H-pyrrolo[2,3-b]pyridine-3-carbonyl)-2,4-difluoro-phenyl]-4-propyl-benzenesulfonamide] |
| ≤ 10 | ≤ 10 | ≤ 10 | – | ≤ 10 | – | – | CCCc1ccc(S(=O)(=O)Nc2ccc(F)c(C(=O)c3c[nH]c4ncc(-c5ncc(C)n5C)cc34)c2F)cc1 [Compound P-0027, N-{3-[5-(1,5-Dimethyl-1H-imidazol-2-yl)-1H-pyrrolo[2,3-b]pyridine-3-carbonyl]-2,4-difluoro-phenyl}-4-propyl-benzenesulfonamide] |
| – | – | ≤ 10 | ≤ 10 | ≤ 10 | ≤ 10 | ≤ 10 | Cc1ccc2sc(S(=O)(=O)Nc3ccc(F)c(C(=O)c4c[nH]c5ncc(Cl)cc45)c3F)cc2c1 [Compound P-0017, 5-Methyl-benzo[b]thiophene-2-sulfonic acid [3-(5-chloro-1H-pyrrolo[2,3-b]pyridine-3-carbonyl)-2,4-difluoro-phenyl]-amide] |
| – | – | – | – | ≤ 10 | ≤ 10 | ≤ 10 | Cc1cnc2[nH]cc(C(=O)c3c(F)ccc(NS(=O)(=O)c4ccc(C(F)(F)F)cc4)c3F)c2c1 [Compound P-0030, N-[2,4-Difluoro-3-(5-methyl-1H-pyrrolo[2,3-b]pyridine-3-carbonyl)-phenyl]-4-trifluoromethyl-benzenesulfonamide] |
| ≤ 10 | ≤ 10 | ≤ 10 | – | ≤ 10 | ≤ 10 | ≤ 10 | O=C(c1c(F)ccc(NS(=O)(=O)c2csc3ccccc23)c1F)c1c[nH]c2ncc(Cl)cc12 [Compound P-0001, Benzo[b]thiophene-3-sulfonic acid [3-(5-chloro-1H-pyrrolo[2,3-b]pyridine-3-carbonyl)-2,4-difluoro-phenyl]-amide] |
| ≤ 10 | ≤ 10 | ≤ 10 | ≤ 10 | ≤ 10 | ≤ 10 | – | Cc1ccc(S(=O)(=O)Nc2ccc(F)c(C(=O)c3c[nH]c4ncc(Cl)cc34)c2F)s1 [Compound P-0028, 5-Methyl-thiophene-2-sulfonic acid [3-(5-chloro-1H-pyrrolo[2,3-b]pyridine-3-carbonyl)-2,4-difluoro-phenyl]-amide] |

— patent US7863289B2, “Compounds and methods for kinase modulation, and indications therefor” (Plexxikon, Inc., priority 2006, dated 2011)
